# Laboratory results reported in patent publication US20130202698A1 (NANJING SANHOME PHARMACEUTICAL CO., LTD., priority 2005, published 2013).
# Like-named read-outs stand apart in the source and are kept apart here. Marks after values point to notes of the source that are not given here.
# Columns and labels:
# righting reflex = experiment: Hypnotic effect, loss of righting reflex; format: in vivo; details: mice, positive control, 40 mg/kg (Table 9), 10 animals
# [1] = tested on: spontaneous activities of mice; details: both, mouse, in vivo, 3 mg/kg
# Description: Mice weighing 18-22 g, half male and half female, were placed in the laboratory 24 hours before the test to adapt to the environment. The room temperature was controlled at 24±2° C. Animals were fasted for 8 hours before testing, and then placed in a transparent cage. The number of spontaneous activities of mice was counted by an automatic device (model XZ-4 by Drug Research Institute of China Academy of Medical Sciences). Mice were pre-screened by counting their spontaneous activities for five minutes and unqualified mice were excluded. A total of 110 mice were selected and divided into 11 groups with 10 mice in each group.
# Chlorpromazine (3 mg/kg) was used as the positive control. The dose volume was 0.2 mL/10 gram and infusion rate was 0.2 mL/10 seconds.
# [2] = tested on: motor balance and coordination; details: both, mouse, in vivo, 3 mg/kg
# Description: Motor balance and coordination were tested using a modified beam walking method. Mice were put on a smooth beam tilted at an angle of 70 degree. Mice passed the test by standing on the beam for 0.5 minute without falling off. All the mice were pre-screened before the studies, and a total of 110 mice were selected by passing the beam test in 3 consecutive tries. The selected mice were divided into 11 groups with 10 mice in each group (half male and half female). At certain time points after drug administration, mice were tested on the beam for 3 consecutive times. A mouse was counted as failing to the test if it fell off the beam for 2 or more times.
# The dose volume was 0.2 mL/10 gram and infusion rate was 0.2 mL/10 seconds. Chlorpromazine was used as the positive control.
# [3] = tested on: Remefline-induced convulsion; experiment: Anticonvulsant effects on Remefline-induced convulsion in mice; format: in vivo; details: 2 mg/kg, positive control
# Description: In one experiment, the anticonvulsant effects of levo- and dextro-ornidazole against drug-induced convulsions in mice were compared. In four different animal convulsion models, mice were treated by four different seizure-inducing agents, including Remefline, Strychnine, isoniazid, thiosemicarbazide. Levo- or dextro-ornidazole was administered along with the seizure-inducing agents, and several outcomes were measured, including rate of convulsion, mortality rate, time to convulsion (latency), and time to death. Diazepam was used as a positive anticonvulsant control.
# Mice are randomized into 4 treatment groups (n=10 with half male and half female): dextro- or levo-ornidazole (dosage 40, 80, 160 mg/kg), vehicle control group (15% propylene glycol in 0.9% sodium chloride, 20 mL/kg) and the positive control group. Animals are treated with known convulsion-inducing agents, followed by the drug or vehicle control given intravenously. The dose volume is 20 mL/kg with an infusion rate of 0.2 mL/10 seconds.
# [4] = tested on: Strychnine-induced convulsion; experiment: Anticonvulsant effects on Strychnine-induced convulsion in mice; format: in vivo; details: 2 mg/kg, positive control, n=10
# Description: (§1) Mice are randomized into 4 treatment groups (n=10 with half male and half female): dextro- or levo-ornidazole (dosage 40, 80, 160 mg/kg), vehicle control group (15% propylene glycol in 0.9% sodium chloride, 20 mL/kg) and the positive control group. Animals are treated with known convulsion-inducing agents, followed by the drug or vehicle control given intravenously. The dose volume is 20 mL/kg with an infusion rate of 0.2 mL/10 seconds. The anticonvulsant effects are observed and recorded (see Tables 2-6).
# [5] = tested on: isoniazid-induced convulsion; experiment: Anticonvulsant effects on isoniazid-induced convulsion in mice; format: in vivo; details: 2 mg/kg, positive control, Mean ± SD, n=10
# Description: as §1
# [6] = tested on: thiosemicarbazide-induced convulsion; experiment: Anticonvulsant effects on thiosemicarbazide-induced convulsion in mice; format: in vivo; details: 2 mg/kg, positive control, n=10
# Description: as §1
smiles,measurement,setting,value
"CCCC(C)C1(CC)C(=O)NC(=O)NC1=O (stereo not shown) [Pentobarbital, Sodium pentobarbital]",Number of animals Loss of Righting Flex 30 min Post-dose,righting reflex,10**
CN(C)CCCN1c2ccccc2Sc2ccc(Cl)cc21 [Chlorpromazine],Spontaneous Activities (per 5 min),[1]; 0.5 h,5 ± 2 per 5 min
same,Spontaneous Activities (per 5 min),[1]; 1 h,6 ± 4 per 5 min
same,Spontaneous Activities (per 5 min),[1]; 2 h,13 ± 6 per 5 min
same,Spontaneous Activities (per 5 min),[1]; 3 h,21 ± 9 per 5 min
same,Spontaneous Activities (per 5 min),[1]; 4 h,35 ± 9 per 5 min
same,Number of Animals Fall Off,[2]; 0.5 h,10
same,Number of Animals Fall Off,[2]; 1 h,10
same,Number of Animals Fall Off,[2]; 2 h,10
same,Number of Animals Fall Off,[2]; 3 h,9
same,Number of Animals Fall Off,[2]; 4 h,5
CN1C(=O)CN=C(c2ccccc2)c2cc(Cl)ccc21 [Diazepam],Rate of Convulsion,[3]; n=10,0/10**
same,Mortality Rate,"[3]; n=10, 2 mg/kg",0/10**
same,Mortality Rate,"[3]; n=10, listed as diazepam",0/10
same,Mortality Rate,[4],0/10**
same,Convulsion Latency,[5],57.4 ± 9.7 min
same,Time to Death,[5],79.0 ± 12.9 min
same,Mortality Rate,[6],0/10**
same,Rate of Convulsion,[6],2/10**
